Drawing on patent publication US7511144B2, “Reverse hydroxamic acid derivatives” (Kaken Pharmaceutical Co., Ltd., priority 2001, dated 2009), this text covers IC50 for 35 molecules.

Like-named read-outs stand apart in the source and are kept apart here.

For orientation: IC50 means the point on the concentration scale where inhibition reaches its midpoint.

Holding throughout (format): biochemical
One assay concerns the target T1, Human MMP3 (Homo sapiens, UniProt P08254).
T1 construct: purchased Calbiochem 444217
In words: MMP3 inhibition experiment. The conditions noted are these: concentration required for 50% inhibition of enzyme activity; read-out: IC50 value MMP-3. As to the method: (§1) MMP inhibition experiment may be carried out using a fluorescent synthetic substrate according to, for example, the methods of Bickett et al. (D. Mark Bickett et al., Anal. Biochem., 1993, 212, 58-64) and Nagase et al. (H. Nagase et al., J. Biol. Chem., 1994, 269, 20952-20957). The methods of inhibition experiments carried out for various MMPs are described below.
Human MMP3 (Calbiochem #444217) in 90 μL (5 ng) prepared in the assay buffer A was added to 90 μL of 20 μM fluorescent substrate NFF-3(MOCAc-Arg-Pro-Lys-Pro-Val-Glu-Nva-Trp-Arg-Lys(Dnp)-NH2, Peptide Institute, Inc., #3168-v) prepared in the assay buffer B, followed by reaction for 5 hours at 37° C.

For a further assay, the target named is T2, Human MMP17 (Homo sapiens, UniProt Q9ULZ9).
T2 construct: purchased Calbiochem 475940
T2 sequence (Q9ULZ9 126-300 limits assumed): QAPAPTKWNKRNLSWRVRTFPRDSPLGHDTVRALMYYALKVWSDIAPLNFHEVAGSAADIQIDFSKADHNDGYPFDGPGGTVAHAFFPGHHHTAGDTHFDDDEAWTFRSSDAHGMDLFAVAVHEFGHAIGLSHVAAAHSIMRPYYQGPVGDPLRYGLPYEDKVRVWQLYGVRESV
Put plainly: MMP17 inhibition test. The conditions noted are these: concentration required for 50% inhibition of enzyme activity; read-out: IC50 value MMP-17.

Another assay has as its target T3, Human MMP14 (Homo sapiens, UniProt P50281).
T3 construct: purchased Biogenesis or Calbiochem 5980-1461 or 475935
Put plainly: MMP14 inhibition experiment. To be noted: concentration required for 50% inhibition of enzyme activity; read-out: IC50 value MMP-14. As to the method: as §1
Human MMP14 (Biogenesis #5980-1461 or Calbiochem #475935) in amount of 90 μL (4 ng) prepared in the assay buffer A was added to 90 μL of 20 μM fluorescent substrate (Dnp-Pro-Cha-Gly-Cys(Me)-His-Ala-Lys(Nma)-NH2) prepared in the assay buffer B, followed by reaction for 5 hours at 37° C.

In the next assay the target is T4, Human MMP13 (Homo sapiens, UniProt P45452).
T4 construct: purchased Chemicon CC068
In words: MMP13 inhibition experiment. To be noted: concentration required for 50% inhibition of enzyme activity; read-out: IC50 value MMP-13.

Another assay concerns the target T5, Human MMP1 (Homo sapiens, UniProt P03956).
T5 construct: purchased Calbiochem 444208
T5 sequence (P03956 100-469): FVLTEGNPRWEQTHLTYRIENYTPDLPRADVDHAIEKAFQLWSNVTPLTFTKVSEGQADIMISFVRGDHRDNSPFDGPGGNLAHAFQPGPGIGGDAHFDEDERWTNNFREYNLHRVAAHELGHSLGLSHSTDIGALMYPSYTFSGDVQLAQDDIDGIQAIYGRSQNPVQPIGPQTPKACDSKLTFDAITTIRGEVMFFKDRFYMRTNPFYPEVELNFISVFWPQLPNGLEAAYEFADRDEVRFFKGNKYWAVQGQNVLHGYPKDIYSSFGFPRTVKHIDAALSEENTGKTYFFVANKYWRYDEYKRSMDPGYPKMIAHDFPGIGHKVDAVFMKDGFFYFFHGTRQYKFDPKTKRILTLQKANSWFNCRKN
In words: MMP1 inhibition experiment. The conditions noted are these: read-out: IC50 value MMP-1.

The target of the next assay is T6, Human MMP9 (Homo sapiens, UniProt P14780).
T6 construct: purchased Calbiochem 444231
Put plainly: MMP9 inhibition experiment. The conditions noted are these: read-out: IC50 value MMP-9.

In the next assay the target is T7, TACE (Homo sapiens, UniProt P78536).
T7 construct: made in house; host or cells: mammalian cells or insect cells
Put plainly: TACE inhibition experiment (in vitro).

The mark [1] stands for this setting: concentration required for 50% inhibition of enzyme activity.

T7 sequence (P78536 215-824): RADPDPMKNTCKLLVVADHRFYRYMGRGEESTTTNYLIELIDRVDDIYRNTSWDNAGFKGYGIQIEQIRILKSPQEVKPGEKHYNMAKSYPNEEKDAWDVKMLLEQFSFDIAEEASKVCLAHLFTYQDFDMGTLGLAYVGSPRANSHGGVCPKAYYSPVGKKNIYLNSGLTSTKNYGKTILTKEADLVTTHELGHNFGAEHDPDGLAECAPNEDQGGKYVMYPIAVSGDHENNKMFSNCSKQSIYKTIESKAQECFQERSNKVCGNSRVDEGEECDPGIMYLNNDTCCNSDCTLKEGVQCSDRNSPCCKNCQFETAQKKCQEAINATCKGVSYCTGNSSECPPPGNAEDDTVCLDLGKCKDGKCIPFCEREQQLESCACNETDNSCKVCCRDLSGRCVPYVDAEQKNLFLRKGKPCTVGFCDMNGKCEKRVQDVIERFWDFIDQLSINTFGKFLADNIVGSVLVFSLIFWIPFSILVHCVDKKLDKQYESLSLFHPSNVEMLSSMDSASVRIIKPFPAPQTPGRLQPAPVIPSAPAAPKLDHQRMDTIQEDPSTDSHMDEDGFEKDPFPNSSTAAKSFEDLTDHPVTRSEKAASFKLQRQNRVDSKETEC
T6 sequence (P14780 107-707 limits assumed): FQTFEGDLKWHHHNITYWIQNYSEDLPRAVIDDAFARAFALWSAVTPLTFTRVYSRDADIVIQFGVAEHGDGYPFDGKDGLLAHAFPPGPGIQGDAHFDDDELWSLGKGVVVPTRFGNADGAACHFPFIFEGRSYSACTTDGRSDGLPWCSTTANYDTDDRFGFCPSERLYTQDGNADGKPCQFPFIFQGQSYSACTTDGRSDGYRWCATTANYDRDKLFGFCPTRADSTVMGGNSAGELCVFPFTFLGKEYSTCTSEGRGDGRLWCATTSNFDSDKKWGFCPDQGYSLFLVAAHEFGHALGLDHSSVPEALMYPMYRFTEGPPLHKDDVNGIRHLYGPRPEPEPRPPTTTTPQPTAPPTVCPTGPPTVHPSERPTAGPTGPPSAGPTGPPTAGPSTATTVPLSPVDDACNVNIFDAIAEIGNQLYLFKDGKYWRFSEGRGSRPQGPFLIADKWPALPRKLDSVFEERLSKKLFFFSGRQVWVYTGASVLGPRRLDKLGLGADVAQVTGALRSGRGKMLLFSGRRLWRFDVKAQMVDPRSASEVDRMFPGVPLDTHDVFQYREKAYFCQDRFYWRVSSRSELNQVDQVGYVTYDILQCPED
T1 sequence (P08254 100-272 limits assumed): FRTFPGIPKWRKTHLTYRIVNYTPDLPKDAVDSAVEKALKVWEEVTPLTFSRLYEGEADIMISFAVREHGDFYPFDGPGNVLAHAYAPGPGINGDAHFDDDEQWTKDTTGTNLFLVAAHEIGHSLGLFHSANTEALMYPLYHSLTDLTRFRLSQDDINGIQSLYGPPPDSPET
Method for Human MMP13: Human MMP13 (Chemicon #CC068) in amount of 90 μL (200 ng) was activated by mixing with 10 μL of 10 mM APMA, followed by reaction for 1 hour at 37° C. This enzyme solution in amount of 0.6 μL was diluted to 90 μL with the assay buffer A, which was added to 90 μL of 20 μM fluorescent substrate (Dnp-Pro-Cha-Gly-Cys(Me)-His-Ala-Lys(Nma)-NH2) prepared in the assay buffer B, followed by reaction for 4 hours at 37° C.
Method for Human MMP9: This enzyme solution in amount of 1 μL was diluted to 90 μL with the assay buffer A, which was added to 90 μL of 20 μM fluorescent substrate (Dnp-Pro-Cha-Gly-Cys(Me)-His-Ala-Lys(Nma)-NH2) prepared in the assay buffer B, followed by reaction for 4 hours at 37° C.

`C=C1CCC(C(CS(=O)(=O)c2ccc(OCc3cc(C)nc4ccccc34)cc2)N(O)C=O)CC1` (stereo not drawn) [Example I-1, N-hydroxy-N-[1-(4-methylenecyclohexyl)-2-{4-(2-methylquinolin-4-ylmethoxy)benzenesulfonyl}ethyl]formamide]: the concentration for half-maximal inhibition (IC50) is 6 µM at Human MMP3; 2 µM at Human MMP17; 40 µM at Human MMP14; 7.3 µM on Human MMP13; 50 µM on Human MMP1.

In the case of `Cc1cc(COc2ccc(S(=O)(=O)CC(C=C3CCC(=O)CC3)N(O)C=O)cc2)c2ccccc2n1` (stereo not drawn) [Example I-3, N-Hydroxy-N-[2-{4-(2-methylquinolin-4-ylmethoxy)benzenesulfonyl}-1-(4-oxocyclohexylidenemethyl)ethyl]formamide], the IC50 at Human MMP3 was determined as 6.3 µM; at Human MMP9 (setting [1]), 50 µM; on Human MMP17, 2.5 µM; at TACE (setting [1]), 0.0035 µM; at Human MMP14 it was 43 µM; on Human MMP13, 22 µM. Besides, the 50% inhibitory concentration (IC50) on Human MMP1 is above 100 µM.

In the case of `C=C1CCC(C(CS(=O)(=O)c2ccc(OCc3cc(C)nc(C)c3)cc2)N(O)C=O)CC1` (stereo not drawn) [Example I-4, N-[2-{4-(2,6-dimethylpyridin-4-ylmethoxy)benzenesulfonyl}-1-(4-methylenecyclohexyl)ethyl]-N-hydroxyformamide], the IC50 at Human MMP3 was found to be 5 µM; at Human MMP9, 40 µM; at Human MMP17, 2 µM; against TACE, 0.06 µM; at Human MMP14, 43 µM; at Human MMP13, 2.5 µM. On Human MMP1, the half-inhibitory concentration (IC50) is above 100 µM.

As to `Cc1cc(COc2ccc(S(=O)(=O)CC(C=C3CCC(=NO)CC3)N(O)C=O)cc2)c2ccccc2n1` (stereo not drawn) [Example I-6, N-Hydroxy-N-[1-(4-hydroxyiminocyclohexylidenemethyl)-2-{4-(2-methylquinolin-4-ylmethoxy)benzenesulfonyl}ethyl]formamide], the half-maximal inhibitory concentration (IC50) at Human MMP3 amounted to 5 µM; on Human MMP9, 45 µM; on Human MMP17, 3 µM; at Human MMP14 it was 50 µM; on Human MMP13, 15 µM; at Human MMP1, 80 µM.

As for `Cc1cc(COc2ccc(S(=O)(=O)CC(C3CCC(=NO)CC3)N(O)C=O)cc2)c2ccccc2n1` (stereo not drawn) [Example I-14], the IC50 on Human MMP14 was found to be 23 µM; at Human MMP1 it was 30 µM.

At TACE, `Cc1cc(COc2ccc(S(=O)(=O)CC(CCc3ccccc3C)N(O)C=O)cc2)c2ccccc2n1` (stereo not drawn) [Example I-40] gave an IC50 of 0.27 µM.

Consider `O=CN(O)C(CC1CCC2(CC1)OCCO2)CS(=O)(=O)c1ccc(OCc2ccc3ccccc3n2)cc1` (stereo not drawn) [Example I-87], for which, on TACE, the IC50 came out at 5.7 µM.

On to `O=CN(O)C(CC1CCC(=NO)CC1)CS(=O)(=O)c1ccc(OCc2ccc3ccccc3n2)cc1` (stereo not drawn) [Example I-88], for which the concentration for half-maximal inhibition (IC50) against TACE is 0.76 µM.

The molecule `O=CN(O)C(CC1CCC(=O)CC1)CS(=O)(=O)c1ccc(OCc2ccc3ccccc3n2)cc1` (stereo not drawn) [Example I-89] showed an IC50 against TACE of 0.82 µM.

With `Cc1cc(C)cc(COc2ccc(S(=O)(=O)CC(CC3CCC4(CC3)OCCO4)N(O)C=O)cc2)c1` (stereo not drawn) [Example I-90], the 50% inhibitory concentration (IC50) on TACE was 2.1 µM.

Turning to `COCc1cc(COc2ccc(S(=O)(=O)CC(CC3CCC4(CC3)OCCO4)N(O)C=O)cc2)cc(C)n1` (stereo not drawn) [Example I-121], inhibition at TACE was half-maximal at 0.36 µM (IC50).

The molecule `COCc1cc(COc2ccc(S(=O)(=O)CC(CC3CCC(=O)CC3)N(O)C=O)cc2)cc(C)n1` (stereo not drawn) [Example I-123] came in with an IC50 on TACE of 0.29 µM.

On to `Cc1cccc(C(CS(=O)(=O)c2ccc(OCc3cc(C)nc4ccccc34)cc2)N(O)C=O)n1` (stereo not drawn) [Example I-135], for which the half-inhibitory concentration (IC50) at TACE came out at 0.004 µM.

For the molecule `Cc1cc(COc2ccc(S(=O)(=O)CC(C=C3CCCN(S(C)(=O)=O)CC3)N(O)C=O)cc2)c2ccccc2n1` (stereo not drawn) [Example I-138], on TACE, the IC50 is 0.0028 µM.

As for `CCC(CC)C(=O)N1CCCC(=CC(CS(=O)(=O)c2ccc(OCc3cc(C)nc4ccccc34)cc2)N(O)C=O)CC1` (stereo not drawn) [Example I-139], the IC50 against TACE was found to be 0.0082 µM.

Regarding `Cc1cc(COc2ccc(S(=O)(=O)CC(C=C3CCCN(CC(C)C)CC3)N(O)C=O)cc2)c2ccccc2n1` (stereo not drawn) [Example I-140], the concentration for half-maximal inhibition (IC50) against TACE stood at 0.0082 µM.

Regarding `CCC(CC)C(=O)N1CC/C(=C\C(CS(=O)(=O)c2ccc(OCc3cc(C)nc4ccccc34)cc2)N(O)C=O)C(C)(C)C1` (stereo not drawn) [Example I-141], at TACE, the midpoint of inhibition, the IC50, lay at 0.0033 µM.

With `Cc1cc(COc2ccc(S(=O)(=O)CC(/C=C3\CCN(CC(C)C)CC3(C)C)N(O)C=O)cc2)c2ccccc2n1` (stereo not drawn) [Example I-142], the half-inhibitory concentration (IC50) on TACE worked out at 0.018 µM.

Consider `Cc1cc(COc2ccc(S(=O)(=O)CC(/C=C/C3(C)CCOCC3)N(O)C=O)cc2)c2ccccc2n1` (stereo not drawn) [Example I-143], for which, at TACE, the IC50 was 0.0033 µM.

For the molecule `Cc1cc(COc2ccc(S(=O)(=O)CC(CCC3(C)CCOCC3)N(O)C=O)cc2)c2ccccc2n1` (stereo not drawn) [Example I-144], the IC50 on TACE is 0.0072 µM.

Molecule `COc1ccc(CCC(CS(=O)(=O)c2ccc(OCc3cc(C)nc4ccccc34)cc2)N(O)C=O)c(C)c1C` (stereo not drawn) [Example I-145] came in with an IC50 against TACE of 0.21 µM.

Molecule `Cc1cc(COc2ccc(S(=O)(=O)CC(CCC3=CCCC(O)C3)N(O)C=O)cc2)c2ccccc2n1` (stereo not drawn) [Example I-146] yielded a concentration for half-maximal inhibition (IC50) against TACE of 0.0094 µM.

On to `Cc1ccc2nc(C)cc(COc3ccc(S(=O)(=O)CC(c4ccc(C)nc4)N(O)C=O)cc3)c2c1` (stereo not drawn) [Example I-147], for which, on TACE, the concentration for half-maximal inhibition (IC50) was 0.0043 µM.

`Cc1ccc2nc(C)cc(COc3ccc(S(=O)(=O)CC([C@@H]4CSC(=O)N4C)N(O)C=O)cc3)c2c1` (stereo partly drawn) [Example I-148] returned a concentration for half-maximal inhibition (IC50) on TACE of 0.013 µM.

`Cc1cc(COc2ccc(S(=O)(=O)CC(CC3=CCN(C(=O)OC(C)(C)C)CC3(C)C)N(O)C=O)cc2)c2ccccc2n1` (stereo not drawn) [Example I-152] yielded an IC50 against TACE of 0.013 µM.

Take `CCN1CCCC(C(CS(=O)(=O)c2ccc(OCc3cc(C)nc4ccccc34)cc2)N(O)C=O)C1` (stereo not drawn) [Example I-153]: the midpoint of inhibition at TACE, the IC50, lay at 0.033 µM.

Take `Cc1cc(COc2ccc(S(=O)(=O)CC(C3CCCN(CC(C)C)C3)N(O)C=O)cc2)c2ccccc2n1` (stereo not drawn) [Example I-154]: it took 0.031 µM to reach half-maximal inhibition at TACE (IC50).

Consider `CCN1CCC(C(CS(=O)(=O)c2ccc(OCc3cc(C)nc4ccccc34)cc2)N(O)C=O)CC1` (stereo not drawn) [Example I-156], for which, on TACE, half-maximal inhibition (IC50) was put at 0.033 µM.

As to `Cc1cc(COc2ccc(S(=O)(=O)CC(CC3CCCN(C(=O)OC(C)(C)C)C3)N(O)C=O)cc2)c2ccccc2n1` (stereo not drawn) [Example I-157], the IC50 at TACE worked out at 0.013 µM.

In the case of `CCN1CCCC(CC(CS(=O)(=O)c2ccc(OCc3cc(C)nc4ccccc34)cc2)N(O)C=O)C1` (stereo not drawn) [Example I-158], on TACE, the IC50 is 0.026 µM.

On TACE, `CCC(CC)CN1CCCC(C(CS(=O)(=O)c2ccc(OCc3cc(C)nc4ccccc34)cc2)N(O)C=O)C1` (stereo not drawn) [Example I-160] had an IC50 of 0.05 µM.

Turning to `Cc1cc(COc2ccc(S(=O)(=O)CC(N(O)C=O)C3(C)CCN(C(=O)OC(C)(C)C)CC3)cc2)c2ccccc2n1` (stereo not drawn) [Example I-161], the concentration for half-maximal inhibition (IC50) on TACE came out at 0.044 µM.

In turn, `CCC(CC)C(=O)N1CCC(=CC(CS(=O)(=O)c2ccc(OCc3cc(C)nc4ccc(C)cc34)cc2)N(O)C=O)CC1` (stereo not drawn) [Example I-173] displayed a half-inhibitory concentration (IC50) against TACE of 0.005 µM.

The molecule `CCC(CC)CN1CCC(=CC(CS(=O)(=O)c2ccc(OCc3cc(C)nc4ccc(C)cc34)cc2)N(O)C=O)CC1` (stereo not drawn) [Example I-174] gave a concentration for half-maximal inhibition (IC50) against TACE of 0.015 µM.

With `CCC(CC)C(=O)N1CCC(CC(CS(=O)(=O)c2ccc(OCc3cc(C)nc4ccc(C)cc34)cc2)N(O)C=O)CC1` (stereo not drawn) [Example I-175], the half-inhibitory concentration (IC50) against TACE stood at 0.011 µM.
